# Results published in patent US20210403864A1, “METHODS AND COMPOSITIONS FOR TREATING ACTIVATED G-ALPHA Q MUTANT CANCERS OR MELANOCYTIC MALIGNANCIES” (Memorial Sloan Kettering Cancer Center, priority 2018, published 2021).
# Tests used:
# CYSLTR2^L129Q = test: IP1 accumulation assay in mutation dependent melan-a cells; assay type: cell-based, mouse; conditions: 24-hour treatment
# Method: (§1) Cells were treated with increasing concentrations of YM-254890 (YM) for 3 hours (top) and 24 hours (bottom). Error bars, s.e.m. from three biological replicates, each with three technical replicates.
# (§2) Cell Culture and in vitro analysis. Mutation dependent melan-a cells were generated by transducing cells with cDNAs in MSCV-PURO (retrovirus) and then selecting cells with puromycin (1 μg/ml) for two days. TPA (Sigma-Aldrich, St. Louis, Mo.) was then withdrawn from cultures. Cells with activating mutations (CYSLTR2^L129Q, GNAQ^G48V/R183Q/Q209L, KRAS^G12V, and BRAF^V600E) continued to proliferate over several passages (>2 weeks) and were then validated with qRT-PCR and immunoblots. Vector and WT controls were unable to maintain proliferation after a couple passages upon TPA withdrawal. All cells were cultured in media containing 10% FBS, L-glutamine ([…]), penicillin (100 U/ml), streptomycin (100 μg/ml). Melan-a cells provided by D. Bennett, St. George's Hospital, University of London (Johnson C P, et al., PLoS One. 12(6):1-17 (2017)), were cultured in RPMI supplemented with 200 nM TPA unless otherwise noted. HEK293T (from ATCC, Manassas, Va.) cells were cultured in DMEM-Q and UVM cells were cultured in RPMI. All cells tested negative for mycoplasma. Cell growth assays and YM dose response curves were assayed using CellTiter-glo 2.0 (Promega, Madison, Wis.) at given time points or after five days of incubation with YM and readout on a Glomax Luminometer (Promega, Madison, Wis.). IC50 values were calculated using Prism 7.0 software. Growth assays were compared to day 1 readings and dose response curves were compared to vehicle. Data shown is representative of at least three independent experiments with at least three technical replicates. Dose-response curves and growth assays were analyzed using GraphPad Prism 7.0 software.
# (§3) IP1 Accumulation Assay. IP1 concentrations in GNAQ-transfected HEK293T cells, GNAQ-expressing melan-a cells and uveal melanoma cells was measured using a competitive homogenous time resolved fluorescence (HTRF) assay (CisBio, Bedford, Mass.). Briefly, 9,000 transiently transfected-HEK293T cells, 5,000 melan-a cells and 5,000 uveal melanoma cells were seeded in low-volume 384-well plates in 7 μL media for 24 hours prior YM-254890 treatment. Cells were then treated with various concentrations of YM-254890 diluted in the appropriate media at 37° C. for 3 hours or 24 hours. 1 h prior lysis, cells were supplemented with 1× Stimulation Buffer provided by the manufacturer (HEPES 10 mM, CaCl2) 1 mM, MgCl2 0.5 mM, KCl 4.2 mM, NaCl 146 mM, glucose 5.5 mM, LiCl 50 mM, pH 7.4) with 0.2% BSA and 50 mM of LiCl (to prevent IP1 degradation). Following incubation, cells were lysed by adding 3 μL/well of d2-labeled IP1 analogue as the fluorescence acceptor and the Terbium cryptate-labeled anti-IP1 mAb as the fluorescence donor, diluted in the kit-supplied lysis buffer. The plates were incubated overnight at RT and time-resolved fluorescence signals were read using the BioTek Synergy NEO plate reader (BioTek Instruments, Winooski, Vt.) at 620 nm and […]. Results were calculated as a 665 nm/620 nm signal ratio, and IP1 concentrations were interpolated from a standard curve prepared using the supplied IP1 calibrator. Results are shown as IP1 (nM). Dose-response curves and bar graphs were analyzed using GraphPad Prism 7.0 software.
# GNAQ^G48V = molecular target: T1, GNAQ^G48V (Homo sapiens, UniProt P50148, G48V); test: as above; assay type: cell-based, mouse
# T1 construct: host or cells: melan-a (immortalized mouse melanocytes), retroviral transduction with MSCV-Puro
# T1 sequence (P50148 1-359 G48V): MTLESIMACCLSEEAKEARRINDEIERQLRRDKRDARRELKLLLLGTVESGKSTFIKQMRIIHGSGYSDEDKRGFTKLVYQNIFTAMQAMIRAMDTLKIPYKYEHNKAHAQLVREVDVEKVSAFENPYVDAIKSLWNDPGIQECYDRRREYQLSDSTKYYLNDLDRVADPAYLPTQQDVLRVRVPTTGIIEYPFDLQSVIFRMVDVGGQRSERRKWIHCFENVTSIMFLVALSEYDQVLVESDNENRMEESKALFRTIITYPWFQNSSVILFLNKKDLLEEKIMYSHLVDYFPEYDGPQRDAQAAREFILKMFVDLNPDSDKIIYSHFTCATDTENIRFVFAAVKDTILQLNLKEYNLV
# Method: as §1, §2, §3
# [1] = test system: human Mel202 uveal melanoma xenografts; test: In vivo anti-tumor activity, xenografts in SCID mice; conditions: MEK162 10 mg/kg P.O. b.i.d.; YM-254890 2.5 mg/kg i.p. q.d.; over 20 days; single agents vs vehicle, combination vs vehicle and single agents
# Method: To evaluate the effect of YM-254890 and binimetinib (MEK162) in vivo, Mel202 uveal melanoma xenografts were established in SCID mice, and the mice were treated with vehicle only, 10 mg/kg MEK162 (P.O., b.i.d.), YM-254890 (2.5 mg/kg i.p., q.d.) or a combination of MEK162 and YM-254890. Tumor volumes were measured over 20 days.
substance,measurement,setting,value
YM-254890,inhibition of IP1 accumulation,CYSLTR2^L129Q,completely inhibited
same,relative sensitivity to YM (IP1 accumulation),CYSLTR2^L129Q,most sensitive
same,inhibition of IP1 accumulation,GNAQ^G48V; 24-hour treatment,completely inhibited
same,relative sensitivity to YM (IP1 accumulation),GNAQ^G48V; 24-hour treatment,most sensitive
same,sensitivity of IP1 accumulation after 3 hours versus 24 hours,GNAQ^G48V; 3 hours of treatment,less sensitive
same,tumor volume,[1],moderate reduction
